Experimental data: PMC4798226, “Streptococcus pneumoniae Cell-Wall-Localized Phosphoenolpyruvate Protein Phosphotransferase Can Function as an Adhesin: Identification of Its Host Target Molecules and Evaluation of Its Potential as a Vaccine” (PLoS ONE, 2016)
Ends that are not written are not given here.

Columns and labels:
[1] = system: S. pneumoniae strain WU2 adhesion to A549 cells; assay: Inhibition of adhesion of S. pneumoniae strain WU2 to A549 cells; type: cell-based, Streptococcus pneumoniae; settings: CFU counting
Description: (§1) A549 and D562 cells were cultured on fibronectin-coated 96-well plates (Fig 2 and S2 Fig) or on Ibidi 8 well chambers (Ibidi GmbH, Planegg/Martinsried, Germany; Figs 3, 4 and 5) or on 96-well plates without fibronectin coating (Figs 7 and 8 and S3 Fig), as previously described. Briefly, the cells were seeded at 5 × 10^4 cells/well in DMEM supplemented with 10% fetal calf serum (FCS) (without antibiotics). Twenty four hours later, the cells (~10^5 cells/well) were blocked with 0.5% gelatin for 1 h. rPtsA (0–500 nM) was then added to the cultured cells for 1 h of incubation. Excess protein was removed, and S. pneumoniae bacteria at a MOI of ~10:1 were added for additional 1 h of incubation. The inoculum size was verified in each experiment. […] Following the incubation, excess bacteria were removed, and cells were detached with trypsin and plated onto blood agar plates for counting. All the inhibitors were used at concentrations below their toxic concentrations either to the bacteria or to the cells. Keyhole limpet hemocyanin (KLH) protein was used as a negative control. Experiments were conducted in triplicates and repeated on 3 different occasions.
(§2) Inhibition of adhesion to A549 cells by anti-rPtsA antiserum, phages or peptides was performed as previously described. Briefly, bacteria were incubated for 1 h with rabbit anti-rPtsA antiserum, the phages, or the selected peptides. The bacteria were then added to the cultured human cells for an additional hour. Following this incubation, excess bacteria were removed, and the procedure was continued as described above. All the inhibitors were used at concentrations below their toxic concentrations either to the bacteria or to the cells. Negative controls included pre-immune serum, phage carrying no insert or a non-inhibitory insert, and a scrambled peptide. Each experiment was performed in triplicates and repeated on 3 different occasions and a representative experiment is presented.

rPtsA = rPtsA (Streptococcus pneumoniae serotype 4, UniProt A0A0H2UQ90); assay: biochemical; type: binding
Description: In all cases, 16 serial dilutions of each putative receptor-derived peptide (~90 nM–3.175 mM) were mixed with a constant concentration of 335 nM labeled rPtsA protein. The normalized change in the fluorescence of the labeled rPtsA protein was plotted against the peptide concentration, and a fit was computed by the NTP program. The experiments were performed in triplicate.
rPtsA labeled with fluorescent NT-495 dye at a constant concentration of 335 nM was mixed with sixteen serial dilutions (~90 nM–3.175 mM) of peptides derived from PCDH19, MMRN1, Eps1, Int β and BMPER. Contactin 4, was used as a negative control. MST analysis was performed using Monolith NT.115 (NanoTemper Technologies GmbH, München, Germany). The normalized change in the fluorescence of bound and unbound labeled rPtsA (ΔF) is indicative of the peptide binding. Plotting ΔF vs. peptide concentration facilitated the generation the dissociation curves, computed by the NTP program. In this way the Kd, reflecting the affinity of each of the peptides for rPtsA, was obtained. […] Each experiment was performed in triplicate.

[2] = system: S. pneumoniae adhesion to A549 cells; assay: Inhibition of adhesion of S. pneumoniae to A549 cells, strain not stated (scrambled peptide control); type: cell-based, Streptococcus pneumoniae; settings: bacteria treated 1 h with peptide, added to A549 cells for 1 h; CFU counting; strain not printed (Fig 8K)
Description: as §1
Fig 8 Inhibition of adhesion of S. pneumoniae cells to A549 cells by target-derived peptides. […]

[3] = system: S. pneumoniae strain WU2 adhesion to Detroit 562 cells; assay: Inhibition of adhesion of S. pneumoniae strain WU2 to Detroit 562 cells; type: cell-based, Streptococcus pneumoniae; settings: bacteria treated 1 h with peptide, added to Detroit 562 cells for 2 h; CFU counting; 3–6 replicates
S. pneumoniae strain WU2 = assay: Nasopharyngeal and lung colonization of CBA/N^xid mice after intranasal inoculation of peptide-pretreated strain WU2; type: in vivo, Streptococcus pneumoniae
Description: BALB/c (highly resistant to S. pneumonia) or CBA/N^xid (highly susceptible to S. pneumoniae) mice strains were immunized subcutaneously (SC) with 25 μg of rPtsA emulsified with complete Freund’s adjuvant (CFA) and subsequently boosted (days 14 and 28) with incomplete Freund’s adjuvant (IFA). On day 42, the BALB/c and CBA/N^xid mice were challenged intranasally (IN), under deep anesthesia using Isoflurane (Piramal Critical Care Inc., PA, USA), with a sublethal dose of strain WU2 (5 × 10^7 and 5 ×x 10^5, respectively). Mice were humanely sacrificed 3 and 24 h later by CO2 asphyxiation, as recommended by the AVMA Guidelines for Euthanasia in Animals: 2013 Edition (https://www.avma.org/KB/Policies/Documents/euthanasia.pdf). Strain WU2 cells were pretreated with the respective peptides and then inoculated IN into adult CBA/N^xid mice. Mice were euthanized 3, 24 or 48 h later with CO2. The nasopharynx and right lobe lung were excised, homogenized and plated onto blood agar plates for bacterial colony counting. For survival experiments, after an immunization regime similar to that described above, BALB/c or CBA/N^xid mice were challenged with a lethal dose of strain WU2 either IN (10^8 CFU and 10^6 CFU, respectively) or intravenously (10^4 CFU). […] The following criteria were considered sufficient evidence of distress to warrant such intervention in order to minimize pain and suffering of the animals: severe weight loss (20% body weight); reluctance or inability to move freely; appearance of bristle fur; social disengagement; refusal or inability to eat or drink. No analgesic treatment was provided, as such treatment may alter the immune response and may independently affect the outcome of the experiments.
Strain WU2 cells were pretreated with Eps 1, BMPER and PCDH19 peptides and then inoculated IN into adult CBA/N^xid mice. Mice were euthanized 3, 24 or 48 h later. The nasopharynx and lungs were excised, homogenized and plated onto blood agar plates for counting. As a control, another group of mice was injected with bacteria treated ex vivo for 1 h with PBS alone.
Fig 9 Effects of target-derived peptides on nasopharyngeal and lung colonization and survival in mice. Strain WU2 cells were pretreated with peptide and then inoculated IN into adult CBA/N^xid mice. As a control, another group of mice was injected with bacteria treated ex vivo for 1 h with PBS alone. Mice were euthanized 3, 24 or 48 h later. The nasopharynx and lungs were excised, homogenized and plated onto blood agar plates for counting. […]

[4] = system: S. pneumoniae strain 3.8DW adhesion to A549 cells; assay: Inhibition of adhesion of S. pneumoniae strain 3.8DW to A549 cells; type: cell-based, Streptococcus pneumoniae; settings: bacteria treated 1 h with peptide, added to A549 cells (plates without fibronectin coating) for 1 h; CFU counting
Description: as §1, §2

[5] = system: S. pneumoniae strain R6 adhesion to A549 cells; assay: Inhibition of adhesion of S. pneumoniae strain R6 to A549 cells; type: cell-based, Streptococcus pneumoniae; settings: bacteria treated 1 h with peptide, added to A549 cells (plates without fibronectin coating) for 1 h; CFU counting
Description: as §1
(§3) Inhibition of adhesion to A549 cells by anti-rPtsA antiserum, phages or peptides was performed as previously described. Briefly, bacteria were incubated for 1 h with rabbit anti-rPtsA antiserum, the phages, or the selected peptides. […]

[6] = system: S. pneumoniae strain D39 adhesion to A549 cells; assay: Inhibition of adhesion of S. pneumoniae strain D39 to A549 cells; type: cell-based, Streptococcus pneumoniae; settings: bacteria treated 1 h with peptide, added to A549 cells (plates without fibronectin coating) for 1 h; CFU counting
Description: as §1, §3

[7] = biological target: HAT-tagged recombinant phosphoenolpyruvate protein phosphotransferase (rPtsA) (Streptococcus pneumoniae (serotype 3 strain WU2)); assay: MST; labeled rPtsA (NT-495 dye) constant at 335 nM; 16 serial dilutions of each peptide (~90 nM–3.175 mM); Monolith NT.115; triplicate
[8] = bacteria incubated 1 h with antiserum or phage, then added to gelatin-blocked A549 cells (fibronectin-coated plates) for 1 h
[9] = bacteria treated 1 h with peptide, added to A549 cells (96-well plates without fibronectin coating) for 1 h
[10] = WU2 pretreated with Eps 1 (14.7 μM), versus sham-treated (PBS) bacteria
[11] = WU2 pretreated with peptide (Eps 1 14.7 μM; BMPER 7 and 14 μM; PCDH19 14.7 and 27.4 μM), versus sham-treated bacteria

ADDESPEMKPGX [phage D8]
Inhibition of adhesion of strain WU2 to A549 cells [1, 8]: inhibited

ADGGVPV [phage H10]
Inhibition of adhesion of strain WU2 to A549 cells [1, 8]: inhibited
Reduction in adhesion of strain WU2 to A549 cells ([1]; phage incubated with strain WU2 for 1 h, added to A549 cells, in comparison to adhesion of bacteria without inhibitors): 75%

AVVVNDANRTRK [phage D3]
Inhibition of adhesion of strain WU2 to A549 cells [1, 8]: inhibited

DQRPAXRRMYRA [phage D10]
Inhibition of adhesion of strain WU2 to A549 cells [1, 8]: inhibited

DQVARIPVIRRV [Intβ4]
Kd (rPtsA): 115 ± 20.5 µM

LDSIRIIVIRRI [phage H9]
Inhibition of adhesion of strain WU2 to A549 cells [1, 8]: inhibited

LPADWATTLMVCSSK [scrambled peptide]
Inhibition of adhesion of S. pneumoniae to A549 cells [2]: No significant inhibition

SDGGVPV [Eps 1]
Inhibition of adhesion of strain WU2 to A549 cells [1, 9]: significantly inhibited
Inhibition of adhesion of strain WU2 to Detroit 562 cells [3]: significant inhibition
Bacterial load in the lungs, 3 h post inoculation (S. pneumoniae strain WU2; [10]): significant reduction
Bacterial load in the nasopharynx, 3 h post inoculation (S. pneumoniae strain WU2; [10]): significant reduction
Bacterial load in the lungs, 48 h post inoculation (S. pneumoniae strain WU2; [11]): significant reduction
Bacterial load in the nasopharynx, 48 h post inoculation (S. pneumoniae strain WU2; [11]): significant reduction
Inhibition of adhesion of strain 3.8DW to A549 cells [4]: significantly inhibited
Inhibition of adhesion of strain R6 to A549 cells [5]: significantly inhibited
Inhibition of adhesion of strain D39 to A549 cells [6]: significantly inhibited

TEQVSDQKNAPA [MMRN1]
Inhibition of adhesion of strain WU2 to A549 cells [1, 9]: significant inhibition
Inhibition of adhesion of strain 3.8DW to A549 cells [4]: significant inhibition

TXQVSNHKNHTN [phage E6]
Inhibition of adhesion of strain WU2 to A549 cells [1, 8]: inhibited

VLVKNDARRTRS [BMPER]
Kd (rPtsA): 21 ± 5.49 µM

VVVSDATRVRVA [Col VII]
Inhibition of adhesion of strain WU2 to A549 cells [1, 9]: significant inhibition
Inhibition of adhesion of strain 3.8DW to A549 cells [4]: significant inhibition

WECKANGRPKPTY [Contactin 4-derived peptide, reference compound]
Kd (affinity of rPtsA binding to peptide) (rPtsA; MST, Monolith NT.115, 335 nM NT-495-labeled rPtsA, 16 serial dilutions of peptide ~90 nM–3.175 mM, fit by NTP program, triplicate): a fit could not be generated

B1: Int β4-derived peptide (peptide)
peptide: DQVARIPVIRRV
Kd [7]: 115 µM

B2: Eps 1-derived peptide (peptide)
peptide: SDGGVPV
Kd [7]: 43.9 µM

B3: PCDH19-derived peptide (peptide)
peptide: DGGVPML
Kd [7]: 58 µM

B4: BMPER-derived peptide (peptide)
peptide: VLVKNDARRTRS
Kd [7]: 21 µM

B5: MMRN1-derived peptide (peptide)
peptide: TEQVSDQKNAPA
Kd [7]: 391 µM
